Holding throughout (type): cell-based, human
The subject of one assay is C81 cells. Nature of the assay: Sensitivity of C81 transfectants to chemotherapeutic drugs (MTT). To be noted: for sensitivity to Docetaxel: androgen deprived conditions; for decrease of growth: 20 nM, steroid reduced media. On the procedure: FIG. 4A-C. […] Equal numbers (5×10^4) of vector or EBP1 stably transfected cells were plated at Day 0 in complete media and viable cell numbers determined at the indicated times. Each point represents mean±S.E. of 3 wells. Representative of 3 experiments (Right panel). Colony growth in soft agar. C81 cells stably transfected with either pcDNA or EBP1 were plated in soft agar at the cell densities indicated and colony numbers assessed at Day 10. Each point represents mean±S.E. of 3 dishes. Data is representative of 3 experiments. B. (Left Panel) Response of EBP1 and vector transfected C81 cells to dihydrotestosterone (DHT). EBP1 and vector control C81 transfected cells and early passage LNCaP cells were plated in complete media at 5×10^3 cells/well in 96 well plates for one day. The next day, cells were switched to steroid reduced medium for two days as described in the Materials and Methods. DHT was then added at the indicated concentrations. Cells were refed media every 3 days. Total cell numbers were determined seven days later by MTT assays. Each point represents mean±S.E. of 6 wells. Data is representative of two experiments. (Right Panel) Effect of Bicalutamide on DHT stimulated growth. Cells were plated as described in the Materials and Methods. After 2 days in steroid reduced medium, cells were fed with fresh steroid reduced medium with or without 10 μM bicalutamide (Casodex) in the presence or absence of 10 nM DHT. Total cell numbers were assessed 7 days later by MTT assay. Cells were refed media every 3 days. The data shown are mean±S.E. of six wells. […] C. […] C81 vector control or EBP1 transfectants were plated in 96 well plates in complete media and allowed to attach overnight. The cells were then placed in steroid reduced media for two days and then refed with steroid reduced media in the presence of the indicated concentrations of Docetaxel (left panel) or Mitoxantrone (right panic). Total cell numbers were determined by MTT assays 5 days later. Each point represents mean±S.E. of 6 wells. Data is representative of two experiments.
Western Blot Analysis. Western blot analysis was performed as previously described (19). The Ebp1 antibody was from Upstate (Lake Placid, N.Y.), the polyclonal antibody to actin from Sigma, the AKT and phospho AKT antibodies from Cell Signaling (Beverly, Mass.) and the AGR2 antibody was previously described (20) Cell Growth Assays Cell growth measurement in complete media was performed as described using a hemocytometer (21). For soft agar growth assays, increasing concentrations of cells (as indicated) were plated in 35 mm Petri dishes in 0.3% agar in complete media and colonies were counted after 10 days of incubation (21). For studies assessing the effect of DHT, HRG or chemotherapeutic agents on cell growth, cells (5×10^3) were plated in 96 well plates in complete media. After a 24-hour attachment period, the medium was replaced with steroid free medium [phenol red free RPMI 1640 and 5% charcoal stripped fetal bovine serum (Sigma)]. After 48 hours of steroid depletion, cells were refed with fresh steroid reduced medium with or without the indicated concentrations of DHT, bicalutamide (Casodex) (10 μM), HRG or the chemotherapeutic drugs at the concentrations indicated. Relative cell growth was determined using a Promega Proliferation Reagent (Promega, Madison Wis.) as per manufacturer's instructions with absorbance being read at […] using a Dynex plate reader. […]

The next assay has as its system LNCaP cells. Nature of the assay: Response of A16 and C13 LNCaP cells to docetaxel (MTT). On the procedure:
FIG. 7A-C. Suppression of EBP1 by shRNA promotes a hormone refractory phenotype A. Western blot analysis of Ebp1. Lysates of LNCaP cells stably transduced with a control lentivirus (A16) or an EBP1 targeted shRNA (13C) were collected and resolved by SDS-PAGE. Western blots were probed for endogenous EBP1 or ACTIN as indicated. B. Inhibition of EBP1 expression abrogates the ability of HRG to arrest growth (Left panel) Control and shRNA EBP1 targeted cells were plated in complete media at […] for one day. The next day, cells were switched to steroid reduced-media and HRG added at the indicated concentrations. Total cell numbers were determined seven days later by MTT assay. Each point represents mean±S.E. of 6 wells. Data is representative of three experiments. (Right Panel) AKT phosphorylation in EBP1 knock out cells Control (A16) or EBP 1 knock out cells (C13) were treated with HRG (20 ng/ml) for 15 mm and cell lysates assessed for the presence of phospho and total AKT as indicated. C. […] Sixteen hours later, luciferase activity was measured. […] Lysates of logarithmically growing A16 and C13 cells were resolved by SDS-PAGE and analyzed by Western blotting using antibodies to AGR2 and ACTIN as indicated. […] The viability of the cells was determined by MTT assays 5 days later. […]

Another assay concerns MCF-7 cells. Nature of the assay: Growth of MCF-7 vector control and EBP1 transfectants in response to HRG or EGF. Here is the method:
FIG. 9A-D. Ectopic expression of EBP1 blocks HRG-induced proliferation. (A) MCF 7 cells were stably transfected with a control Flag vector (CMV) or a FLAG-EBP1 vector (EBP1). Cells lysates were analyzed by Western blotting for FLAG and actin levels as indicated (left panel) or EBP1 and actin (right panel). (B) MCF-7 vector control (Control) or EBP1 transfected cells (EBP1) were plated in 96-well plates in complete media overnight, and then switched to media with 2% FBS and the indicated concentrations of HRGb1 as described in Section 2. Growth was determined 4 days later using a Promega Proliferation Assay. Each point represents the mean±SD for six wells. Data shown are representative of three experiments. (C) AU565 vector control (Control) or EBP1 transfected cells (EBP1) were plated in 96-well plates in complete media overnight, and then switched to media with 2% FBS and the indicated concentrations of HRGβ1. Growth was determined 4 days later using a Promega Proliferation Assay. Each point represents the mean±SD for six wells and is representative of two experiments. […] Growth was determined 4 days later using a Promega Proliferation Assay. […]
2.5. […] Protein concentrations were measured using a detergent compatible kit (Bio-Rad). […] Images were quantified using IMAGE-J software (NIH). […]

The record followed here is US7838495B2, “Compositions and methods of use of EPB1, and ErbB3 binding protein” (University of Maryland, Baltimore, priority 2007, dated 2010).

As a reminder, the inhibition is the drop in the measured response relative to a control, in per cent.

With `CC(=O)O[C@@]12CO[C@@H]1C[C@H](O)[C@@]1(C)C(=O)[C@H](O)C3=C(C)[C@@H](OC(=O)[C@H](O)[C@@H](NC(=O)OC(C)(C)C)c4ccccc4)C[C@@](O)([C@@H](OC(=O)c4ccccc4)[C@H]21)C3(C)C` [Docetaxel], the “sensitivity to Docetaxel” value in the assay on C81 cells (C81 cells) is recorded as “relatively refractory”; in the assay with C81 cells (EBP1 transfected C81 cells, 5-20 nM), “significantly more sensitive”. The same compound yielded a reduction in growth in the assay with LNCaP cells (A16 control LNCaP cells, 5 nM) of 65%. For the same compound, the inhibition at 0.02 µM in the assay on LNCaP cells (Homo sapiens, C13 EBP1 knock down LNCaP cells, 20 nM, read-out: maximum growth inhibition) is 15%.

For the compound `O=C1c2c(O)ccc(O)c2C(=O)c2c(NCCNCCO)ccc(NCCNCCO)c21` [Mitoxantrone], the decrease of growth entry in the assay on C81 cells (C81 EBP1 transfectants) is “approximately 80%”; with C81 cells (C81 vector controls), 40%. For the same compound, the “concentration at which sensitivity plateaued” value in the assay with C81 cells (both vector control and EBP1 transfectants) worked out at 20 nM.

“EGF: growth factor from Sigma used to stimulate MCF-7 growth”: the “growth response to EGF” value in the assay on MCF-7 cells (MCF-7 EBP1 transfected cells) is listed as “growth stimulated by EGF to the same extent as control cells”; in the assay with MCF-7 cells (MCF-7 control cells), “able to respond to EGF”.
